Laboratory results as given in patent publication US8497278B2, “Imidazo[1,2-a]pyridine compounds” (priority 2008, dated 2013).

How the values were obtained:
[1] = system: central benzodiazepine receptors; assay: Central benzodiazepine receptor binding (test of Speth et al.); details: 1000 nM of the compound
How it was run: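 Values are percent inhibition of central benzodiazepine receptor binding at 1000 nM compound (initial single-point screen at 1.0E-09, 1.0E-07 and 1.0E-05 M). Speth et al. binding test; nonspecific binding defined with excess unlabelled ligand and subtracted from total.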

[2] = molecular target: T1, α2 subtype containing GABA-A receptors (Homo sapiens, UniProt P18507+P47869); assay: Two-electrode voltage clamp electrophysiology in Xenopus oocytes, potentiation of GABA EC20 response, α2; format: cell-based; details: 100 nM compound; for activation at 0.1 µM: read-out: Percentage of potentiation alpha2
T1 construct: expressed in transfected cells; host or cells: Xenopus laevis oocytes, cRNA injected
How it was run: (§1)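 Test compounds (100 nM) were assessed for enhancement of a 60 μM (EC20) GABA current in two-electrode-clamped oocytes (−80 mV, ND96 pH 7.5) injected with human αx (1, 2, 3 or 5), β3 and γ2L cRNA. Each oocyte received a 1 μM chlordiazepoxide standard first and was excluded if expression or γ2L incorporation was insufficient.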

Wistar rats = assay: Vogel conflict test; format: in vivo; details: rat, 60 min before test, 3 minute test
Protocol: Vogel Conflict Test Protocol: The Vogel conflict test is an animal model of anxiety described by Vogel et al. (1971). In this test, water deprived animals are placed in a cage with free access to a drinking bottle. Whenever the animal drinks, an electric shock is administered. Animals punished during drinking rapidly cease to drink. Anxiolytic drugs decrease the effect of punishment and increase the number of shocks accepted by the rats in this conflict situation. Male Wistar rats were used in these studies. Rats were deprived of water for approximately 48 hours and then placed individually into a transparent Plexiglas enclosure with a floor consisting of stainless steel bars spaced 1 cm apart. The back wall of the enclosure was made of opaque Plexiglas thereby concealing the observer from the experimental animal. In the center of the opposite wall, 5 cm above the floor, a metal water spout protruded into the cage and was connected to one pole of a shock generator. The other pole of the shock generator was connected to the metal grid floor. The rat is left to explore until it finds the water spout. Then, every time it drinks, it receives an electric shock (1.7 mA, 1 sec duration) 2 seconds after it starts drinking The number of punished drinks is counted during a 3 minute test. Ten rats are studied per treatment group. Clobazam (64 mg/kg) was used as the positive control. Compounds of the present invention, vehicle (45% hydroxypropyl beta-cyclodextrin) and clobazam were administered orally to all groups (n=10 […] per group) 60 minutes prior to behavioral testing. All data were analyzed using unpaired Student's t-tests. An effect was considered significance if p<0.05.

[3] = molecular target: T2, α5 subtype containing GABA-A receptors (Homo sapiens, UniProt P18507+P31644); assay: Two-electrode voltage clamp electrophysiology in Xenopus oocytes, potentiation of GABA EC20 response, α5; format: cell-based; details: 100 nM compound
T2 construct: expressed in transfected cells; host or cells: Xenopus laevis oocytes, cRNA injected
Protocol: Electrophysiology protocol: Oocytes were prepared from adult female Xenopus laevis frogs. cRNA encoding human α1, α2, α3, α5, β3 and γ2L GABAA receptor subunits was injected into the cytoplasm of stage 5 or 6 oocytes using the Robocyte Robot (Multi Channel Systems, Reutlingen, Germany). Two-electrode voltage clamp recordings were made in 96-well plates using the Robocyte Robot. Oocytes were impaled using recording heads with two glass electrodes containing 1.5 M potassium acetate and 0.5 M KCl and held at a membrane potential of −80 mV. Oocytes were continually perfused with a ND96 solution (96 mM NaCl, 2 mM KCl, 0.1 mM CaCl2, and 5 mM HEPES, pH 7.5) using a Gilson 222 XL Liquid Handler and Gilson Minipuls 3 Peristaltic Pump (Gilson Medical Electronics, Middleton, Wis., USA). The protocol consisted of three 20-s applications of GABA that gave a 20% of the maximum response (EC20: 60 μM) to allow for headroom to determine a baseline GABA response. To assess the potentiation, oocytes were first exposed to a single 1 μM chlordiazepoxide (CDP) as a potentiation standard. Oocytes with insufficient expression levels (currents below threshold) or insufficient γ2L subunit incorporation (judged by rapid desensitization upon GABA application, or by insufficient potentiation by CDP) were not included in analysis. Following this control application, a given oocyte was exposed to test compounds at 100 nM concentrations. Only one concentration of one compound was tested per oocyte. […] One skilled in the art will recognize that subtypes contribute to the effects of GABA-A modulators. Such that compounds favoring different subtypes can have different therapeutic effects. The magnitude of modulation, for example, partial modulators can influence the effects in vivo. “++” indicates a greater modulation that “+” so that at any given subtype “++” inducates a greater amount of modulation for that subtype. In some embodiments, modulation favoring alpha 1 relative to alpha2 and/or alpha 3 can have sedative hypnotic effects. In other embodiments, compounds with reduced selectivity of alpha 1 can express anxiolytic effects with less sedation. Compounds with selectivity for alpha 5 can have memory/cognition enhancing effects.

[4] = molecular target: T3, α1 subtype containing GABA-A receptors (Homo sapiens, UniProt P14867+P18507); assay: Two-electrode voltage clamp electrophysiology in Xenopus oocytes, potentiation of GABA EC20 response, α1; format: cell-based; details: 100 nM compound; for activation at 0.1 µM: read-out: Percentage of potentiation alpha1
T3 construct: expressed in transfected cells; host or cells: Xenopus laevis oocytes, cRNA injected
How it was run: as §1

[5] = molecular target: T4, α3 subtype containing GABA-A receptors (Homo sapiens, UniProt P18507+P34903); assay: Two-electrode voltage clamp electrophysiology in Xenopus oocytes, potentiation of GABA EC20 response, α3; format: cell-based; details: 100 nM compound
T4 construct: expressed in transfected cells; host or cells: Xenopus laevis oocytes, cRNA injected
How it was run: as §1

T3 sequence (P14867 28-456): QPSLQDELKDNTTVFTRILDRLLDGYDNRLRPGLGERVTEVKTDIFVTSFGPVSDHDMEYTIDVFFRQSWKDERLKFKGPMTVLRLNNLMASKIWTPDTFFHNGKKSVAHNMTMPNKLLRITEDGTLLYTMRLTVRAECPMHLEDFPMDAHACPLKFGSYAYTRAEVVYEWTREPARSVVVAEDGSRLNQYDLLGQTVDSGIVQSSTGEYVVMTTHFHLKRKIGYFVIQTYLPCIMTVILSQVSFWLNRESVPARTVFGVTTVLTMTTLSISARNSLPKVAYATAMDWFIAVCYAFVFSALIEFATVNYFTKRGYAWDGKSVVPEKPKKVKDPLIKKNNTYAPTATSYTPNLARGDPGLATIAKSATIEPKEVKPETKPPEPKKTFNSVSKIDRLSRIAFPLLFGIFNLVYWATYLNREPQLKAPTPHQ
T3 sequence (P28472 26-473 partner): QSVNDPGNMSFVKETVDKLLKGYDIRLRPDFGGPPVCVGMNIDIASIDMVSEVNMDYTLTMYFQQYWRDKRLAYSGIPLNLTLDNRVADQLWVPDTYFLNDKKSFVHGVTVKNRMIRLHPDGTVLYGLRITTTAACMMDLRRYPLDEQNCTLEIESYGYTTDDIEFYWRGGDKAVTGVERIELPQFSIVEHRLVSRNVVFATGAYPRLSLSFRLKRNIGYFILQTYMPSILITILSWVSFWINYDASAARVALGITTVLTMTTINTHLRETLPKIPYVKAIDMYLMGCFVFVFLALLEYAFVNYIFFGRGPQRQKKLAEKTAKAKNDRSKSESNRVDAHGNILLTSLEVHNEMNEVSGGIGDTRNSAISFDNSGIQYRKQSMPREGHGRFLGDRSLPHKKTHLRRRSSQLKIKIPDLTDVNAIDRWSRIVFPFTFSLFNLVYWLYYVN
T3 sequence (P18507 40-475): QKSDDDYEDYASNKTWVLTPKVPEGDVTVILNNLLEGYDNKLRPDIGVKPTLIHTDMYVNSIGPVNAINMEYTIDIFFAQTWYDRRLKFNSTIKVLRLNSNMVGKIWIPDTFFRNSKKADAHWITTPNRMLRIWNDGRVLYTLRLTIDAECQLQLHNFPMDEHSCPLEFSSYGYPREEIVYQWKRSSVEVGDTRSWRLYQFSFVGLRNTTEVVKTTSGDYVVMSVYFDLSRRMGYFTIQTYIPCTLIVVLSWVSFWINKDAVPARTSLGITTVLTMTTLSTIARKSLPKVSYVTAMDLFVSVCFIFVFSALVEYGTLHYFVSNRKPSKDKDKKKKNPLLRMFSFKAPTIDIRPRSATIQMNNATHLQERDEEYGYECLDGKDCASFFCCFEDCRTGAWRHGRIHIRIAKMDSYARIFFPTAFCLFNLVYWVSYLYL
T1 sequence (P47869 29-451): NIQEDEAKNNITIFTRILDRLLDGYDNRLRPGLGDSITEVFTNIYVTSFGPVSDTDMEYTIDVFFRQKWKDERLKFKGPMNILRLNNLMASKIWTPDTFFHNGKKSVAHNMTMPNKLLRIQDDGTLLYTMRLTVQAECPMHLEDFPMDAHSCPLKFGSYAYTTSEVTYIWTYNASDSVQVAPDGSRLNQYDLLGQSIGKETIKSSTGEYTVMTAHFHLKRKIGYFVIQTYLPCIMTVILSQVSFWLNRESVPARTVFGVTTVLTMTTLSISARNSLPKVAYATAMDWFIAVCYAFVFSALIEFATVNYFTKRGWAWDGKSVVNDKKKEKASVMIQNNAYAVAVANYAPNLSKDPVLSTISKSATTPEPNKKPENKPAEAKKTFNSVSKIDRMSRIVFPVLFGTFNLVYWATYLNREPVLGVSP
T1 sequence (P28472 26-473 partner): as the sequence (P28472 26-473 partner) above
T1 sequence (P18507 40-475): as the sequence (P18507 40-475) above
T4 sequence (P34903 29-492): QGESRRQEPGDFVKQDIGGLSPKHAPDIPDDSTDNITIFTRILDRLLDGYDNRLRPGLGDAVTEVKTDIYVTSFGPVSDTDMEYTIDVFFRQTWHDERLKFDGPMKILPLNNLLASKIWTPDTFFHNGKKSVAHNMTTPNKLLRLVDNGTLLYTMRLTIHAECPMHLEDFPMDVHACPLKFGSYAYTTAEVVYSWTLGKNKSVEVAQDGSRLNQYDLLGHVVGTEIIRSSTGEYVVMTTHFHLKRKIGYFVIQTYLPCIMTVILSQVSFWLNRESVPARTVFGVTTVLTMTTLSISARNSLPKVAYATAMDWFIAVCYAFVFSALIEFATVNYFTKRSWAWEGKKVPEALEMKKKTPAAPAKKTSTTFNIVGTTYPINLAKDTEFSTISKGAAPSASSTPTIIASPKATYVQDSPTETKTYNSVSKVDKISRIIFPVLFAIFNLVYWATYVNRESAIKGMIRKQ
T4 sequence (P28472 26-473 partner): as the sequence (P28472 26-473 partner) above
T4 sequence (P18507 40-475): as the sequence (P18507 40-475) above
T2 sequence (P31644 32-462): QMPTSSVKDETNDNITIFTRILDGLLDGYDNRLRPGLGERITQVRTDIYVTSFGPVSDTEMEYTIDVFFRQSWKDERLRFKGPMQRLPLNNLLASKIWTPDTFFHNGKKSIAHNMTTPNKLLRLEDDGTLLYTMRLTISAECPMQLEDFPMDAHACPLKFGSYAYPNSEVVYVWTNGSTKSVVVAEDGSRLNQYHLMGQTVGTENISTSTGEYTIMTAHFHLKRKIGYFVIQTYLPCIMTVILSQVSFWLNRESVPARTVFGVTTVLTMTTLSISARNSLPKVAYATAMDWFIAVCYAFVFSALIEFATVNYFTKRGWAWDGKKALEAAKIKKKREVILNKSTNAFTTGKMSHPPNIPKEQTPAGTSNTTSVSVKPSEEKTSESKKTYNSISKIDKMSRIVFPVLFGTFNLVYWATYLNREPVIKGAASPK
T2 sequence (P28472 26-473 partner): as the sequence (P28472 26-473 partner) above
T2 sequence (P18507 40-475): as the sequence (P18507 40-475) above

Compound | % Inhibition at 1000 nM for CBZD [1] | activation at 0.1 µM [2] | Number of Shocks Mean ± S.E.M. (Wistar rats; 0.3 mg/kg PO) | Number of Shocks Mean ± S.E.M. (Wistar rats; 1 mg/kg PO) | Number of Shocks Mean ± S.E.M. (Wistar rats; 3 mg/kg PO) | activation at 0.1 µM ([3]; read-out: Percentage of potentiation alpha5) | activation at 0.1 µM [4] | activation at 0.1 µM ([5]; read-out: Percentage of potentiation alpha3) | Number of Shocks Mean ± S.E.M. (Wistar rats; 10 mg/kg PO) | Percentage of potentiation alpha2 [2] | Percentage of potentiation alpha5 [3] | Percentage of potentiation alpha1 [4] | Percentage of potentiation alpha3 [5]
Cc1cc(Cl)nc(NCc2c(-c3ccc(Cl)cc3)nc3ccc(Cl)cn23)n1 [Compound 170, 4-chloro-N-((6-chloro-2-(4-chlorophenyl)imidazo[1,2-a]pyridin-3-yl)methyl)-6-methylpyrimidin-2-amine] | ++ (percentage of inhibition of central BZD site binding is greater than 80% in the presence of 1000 nM of the compound) | 10 to 50% | 5.1 ± 0.9 | 5.6 ± 0.9 | 6.5 ± 1.0 | -10 to 10% | 10 to 50% | 10 to 50% | – | – | – | – | –
Clc1ccc(-c2nc3ccccn3c2Cn2ccnn2)cc1 [Compound 40, 2-(4-Chloro-phenyl)-3-[1,2,3]triazol-1-ylmethyl-imidazo[1,2-a]pyridine] | ++ (percentage of inhibition of central BZD site binding is greater than 80% in the presence of 1000 nM of the compound) | 10 to 50% | – | 2.4 ± 0.4 | 3.4 ± 0.7 | – | -10 to 10% | – | 4.4 ± 0.7 | – | – | – | –
Cc1ccc(-c2nc3ccc(C)cn3c2Cn2cnc3c(N(C)C)ncnc32)cc1 [Compound 17, N,N-Dimethyl-9-((6-methyl-2-p-tolylH-imidazo[1,2-a]pyridin-3-yl)methyl)-9H-purin-6-amine] | ++ (percentage of inhibition of central BZD site binding is greater than 80% in the presence of 1000 nM of the compound) | – | – | – | – | – | – | – | – | + (percentage of potentiation is greater than or equal to 10% but less than 50% in the presence of 100 nM of the compound) | 0 (percentage of potentiation is between about 10% to about −10%) | + (percentage of potentiation is greater than or equal to 10% but less than 50% in the presence of 100 nM of the compound) | 0 (percentage of potentiation is between about 10% to about −10%)
